Results from patent EP0752872B1, “NADH OXIDASE AS A TARGET IN DIAGNOSIS AND THERAPY” (Morré, D. James, priority 1994, dated 1995).
Read-outs that look alike come from different tables or passages of the source.

Experiments:
[1] = system: Protein disulfide-thiol interchange activity of HeLa plasma membrane; experiment: Protein disulfide-thiol interchange (RNAse activity with cCMP as substrate); format: biochemical, human
Protocol: Estimation of protein disulfide isomerase- (PDI) like activity. Two methods were employed to determine PDI or PDI-like activity.
In the first method, ribonuclease A activity was measured using a spectrophotometric assay based on cCMP as RNAse substrate. Scrambled RNAse ([…]) was incubated together with 0.45 mM cCMP in 50 Mm Tris-MES buffer, pH 6.5, at 30°C in a final volume of 3 ml. […] A variation of this assay was to preincubate scrambled RNAse with transitional endoplasmic reticulum for 20 min in the presence or absence of 1 µM all-trans retinol (using ethanol as control) and in the presence or absence of 1 µM reduced or oxidized glutathione or a mixture of both. After this 20 min of "reactivation" of RNAse, cCMP was added to a final concentration of 0.45 mM to initiate the reaction. The increase of the absorbance at 296 nm was recorded over 25 min and the concentrations of cCMP were determined (E = 0.19 mM^-1cm^-1). Spectrophotometric measurements were with a Hitachi U3210 spectrophotometer with a thermostatic cell compartment maintained at 30°C with continuous stirring.
Preparation of scrambled RNAse substrate. To prepare the oxidized, denatured RNAse substrate (scrambled RNAse), native RNAse A (Sigma, Type 1-AS from bovine pancreas) (30 µg/ml) was incubated 1 h at 35°C in 50 mM Tris-acetate, pH 8.6, containing 9 M urea and 130 mM DTT.
Protein concentration was estimated from spectrophotometric measurement at 280 nm using native RNAse A as standard. For preparation of scrambled RNAse, the reduced RNAse was diluted to 0.5 mg/ml with 0.1 M acetic acid. Solid urea was then added to a final concentration of 10 M after which 0.1 M sarcosine hydrochloride was added and the pH adjusted to 8.5 with 1 M Tris. The mixture then was incubated in the dark for 2-3 days during which time the protein was randomly oxidized. The scrambled product was recovered by acidification to pH 4 with glacial acetic acid and elution from Sephadex G-25 in 0.1 M acetic acid. Fractions containing protein were pooled, adjusted to pH 8 and stored at 4°C.

[2] = biological target: T1, NADH oxidase from HeLa cell plasma membranes (Homo sapiens, UniProt Q16206); experiment: Spectrophotometric NADH oxidase assay, HeLa plasma membranes; format: biochemical
T1 sequence (Q16206 1-610): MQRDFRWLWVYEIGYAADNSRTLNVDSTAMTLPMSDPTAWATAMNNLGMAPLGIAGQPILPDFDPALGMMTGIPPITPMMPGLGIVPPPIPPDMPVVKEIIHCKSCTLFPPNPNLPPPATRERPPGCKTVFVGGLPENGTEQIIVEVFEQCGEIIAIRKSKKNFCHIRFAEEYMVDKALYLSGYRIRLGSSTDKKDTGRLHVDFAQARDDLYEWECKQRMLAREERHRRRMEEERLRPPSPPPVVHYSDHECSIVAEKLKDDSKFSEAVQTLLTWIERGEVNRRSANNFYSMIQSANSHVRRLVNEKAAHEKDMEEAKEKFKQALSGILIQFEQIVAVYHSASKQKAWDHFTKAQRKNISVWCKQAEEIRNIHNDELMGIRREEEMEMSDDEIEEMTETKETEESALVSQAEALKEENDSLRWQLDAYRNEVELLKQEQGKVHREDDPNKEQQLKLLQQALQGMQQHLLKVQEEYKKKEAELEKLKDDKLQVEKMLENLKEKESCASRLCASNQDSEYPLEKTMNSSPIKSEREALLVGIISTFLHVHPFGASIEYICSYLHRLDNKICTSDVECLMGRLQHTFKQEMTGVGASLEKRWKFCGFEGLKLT
Protocol: Purification of plasma membranes from HeLa cells. HeLa cells were grown as suspension cultures in minimum essential medium (MEM) supplemented with horse serum, diferric transferrin and heparin. Cells were collected by centrifugation for 6 to 15 min at 1,000 to 3,000 rpm. The cell pellets were resuspended in 0.2 mM EDTA in 1 mM NaHCO3 in an approximate ratio of 1 ml per 10^8 cells and incubated on ice for 10 to 30 min to swell the cells. Homogenization was with a Polytron Homogenizer for 30 to 40 sec at 10,500 rpm using a PT-PA 3012/23 or ST-probe in 7 to 8 ml aliquots. To estimate breakage, the cells are monitored by light microscopy before and after homogenization. […]
The homogenates were centrifuged for 10 min at 1,000 rpm (175 g) to remove unbroken cells and nuclei and the supernatant was centrifuged a second time at 1.4 x 10^6 g min (e.g. 1 h at 23,500 g) to prepare a plasma membrane enriched microsome fraction. […] The purity of the plasma membrane was determined to be > 90% by electron microscope morphometry. […]
Spectrophometric assay of NADH oxidase. NADH oxidase activity was determined as the disappearance of NADH measured at 340 nm in a reaction mixture containing 25 mM Tris-MES buffer (pH 7.2), 1 mM KCN to inhibit the low levels of contaminating mitochondrial oxidase activity, and 150 µM NADH at 37°C with constant stirring. […]

[3] = system: HeLa cells; experiment: Growth of HeLa cells in culture; format: cell-based, human; conditions: Homo sapiens, HeLa, 72 h
Protocol: Growth of cells. HeLa cells (ATCC CCL2), were grown in 150 cm^2 flasks in Minimal Essential Medium (Gibco), pH 7.4. at 37°C with 10% bovine calf serum (heat-inactivated), plus 50 mg/l gentamycin sulfate (Sigma). Cells were trypsinized with Sigma IX trypsin for 1 to 2 min, harvested by scraping and taken up in TD-tris buffer (140 mM NaCl, 5 mM KCl, 0.7 mM Na2HPO4 and 25 mM Tris, pH 7.4) to a final cell concentration of 0.1 g wet weight (gww) per ml.
The number of cells initially plated was subtracted. The results were averages from duplicate experiments.

[4] = system: normal rat kidney cells; experiment: Growth of normal rat kidney cells; format: cell-based
[5] = system: NADH oxidase activity of isolated plasma membranes of normal rat kidney cells; experiment: NADH oxidase assay, plasma membranes of normal rat kidney cells

COc1cc(CNC(=O)CCCC/C=C/C(C)C)ccc1O [capsaicin]
Protein disulfide-thiol interchange activity [1]: .95 nmoles/min/mg protein | inhibition of NADH oxidase activity (in words) [2]: nearly completely inhibited | IC50 ([3]; read-out: concentration at which growth was 50% inhibited): ~1000 nM | IC50 ([3]; read-out: concentration of drug able to inhibit growth by 50%): > 10000 nM | concentration at which growth is inhibited [4]: > 10^-5 M | concentration at which NADH oxidase activity is inhibited [5]: > 10^-5 M
